Laboratory results: ChEMBL document CHEMBL1909550, “Designing 2-aminoimidazole alkaloids analogs with anti-biofilm activities: structure-activities relationships of polysubstituted triazoles” (Bioorg Med Chem Lett, 2011)

Key:
[1] = system: Pseudoalteromonas sp. D41; experiment: Antibiofilm activity against Pseudoalteromonas sp. D41 assessed as inhibition of bacterial adhesion after 15 hrs by fluorescence assay; assay type: functional; settings: Pseudoalteromonas sp. D41, 15 h
Paracoccus sp. [2] = experiment: Antibiofilm activity against Paracoccus sp. 4M6 assessed as inhibition of bacterial adhesion after 15 hrs by fluorescence assay; assay type: functional; settings: Paracoccus sp. (in: a-proteobacteria), 4M6, 15 h
[3] = system: Pseudoalteromonas sp. D41; experiment: Antibiofilm activity against Pseudoalteromonas sp. D41 assessed as inhibition of bacterial adhesion at 200 uM after 15 hrs by fluorescence assay relative to control; assay type: functional; settings: Pseudoalteromonas sp. D41, 15 h
Paracoccus sp. [4] = experiment: Antibiofilm activity against Paracoccus sp. 4M6 assessed as inhibition of bacterial adhesion at 200 uM after 15 hrs by fluorescence assay; assay type: functional; settings: Paracoccus sp. (in: a-proteobacteria), 4M6, 15 h; values are per cent of control
[5] = Antibacterial activity against Pseudoalteromonas sp. D41 assessed as growth inhibition at 100 uM up to 6 hrs by viability assay; settings: pseudoalteromonas sp. d41, 6 h
[6] = Antibacterial activity against Paracoccus sp. 4M6 assessed as growth inhibition at 100 uM up to 6 hrs by viability assay
Pseudomonas aeruginosa [7] = experiment: Antibiofilm activity against Pseudomonas aeruginosa assessed as modulation of biofilm formation; assay type: functional, organism-based
Pseudomonas aeruginosa [8] = experiment: Antibiofilm activity against Pseudomonas aeruginosa assessed as dispersion of bacterial biofilm; assay type: functional, organism-based
[9] = Antibacterial activity against Pseudoalteromonas sp. D41 assessed as growth inhibition at 10 uM up to 6 hrs by viability assay; settings: pseudoalteromonas sp. d41, 6 h
[10] = Antibacterial activity against Paracoccus sp. 4M6 assessed as growth inhibition at 10 uM up to 6 hrs by viability assay

EC50 [1] | EC50 (Paracoccus sp. [2]) | Compound | other results
> 200 µM | > 200 µM | COc1ccc(Cn2nncc2-c2ccccc2)cc1 | inhibition at 200 µM [3]: 70.9%; response, % of control at 200 µM (Paracoccus sp. [4]): 127%
> 200 µM | 199 µM | COc1ccc(Cn2nncc2Cc2ccccc2)cc1 | inhibition at 200 µM [3]: 55.5%
> 200 µM | > 200 µM | COc1cccc(Cn2nncc2CCc2ccccc2)c1 | inhibition at 200 µM [3]: 86.4%; response, % of control at 200 µM (Paracoccus sp. [4]): 65.5%
> 200 µM | > 200 µM | COc1ccc(Cn2nncc2CCc2ccccc2)cc1 | inhibition at 200 µM [3]: 78.5%; response, % of control at 200 µM (Paracoccus sp. [4]): 97.8%
172 µM | > 200 µM | COc1ccc(-c2cnnn2Cc2cccc(OC)c2)cc1 | 
48.6 µM | > 200 µM | COc1cccc(Cn2nncc2-c2cc(OC)cc(OC)c2)c1 | growth inhibition (GI) [5]: Non-toxic
> 200 µM | > 200 µM | COc1ccc(Cn2nncc2-c2ccc(OC)cc2)cc1 | 
34.8 µM | > 200 µM | COc1cccc(Cn2cc(-c3cc(OC)cc(OC)c3)nn2)c1 | growth inhibition (GI) [5]: Non-toxic
> 200 µM | > 200 µM | COc1ccc(Cn2cc(-c3ccc(OC)cc3)nn2)cc1 | 
> 200 µM | > 200 µM | Oc1ccc(Cn2nncc2-c2cc(O)cc(O)c2)cc1 | 
129 µM | 41.2 µM | Oc1ccc(-c2cn(Cc3cccc(O)c3)nn2)cc1 | growth inhibition (GI) [6]: Non-toxic
> 200 µM | 181 µM | Oc1ccc(Cn2cc(-c3cc(O)cc(O)c3)nn2)cc1 | 

The next lines start with the compound.

Compound | EC50 [1] | EC50 (Paracoccus sp. [2]) | other results
COc1ccc(-c2cn(Cc3cccc(OC)c3)nn2)cc1 | > 200 µM | > 200 µM | 
COc1cccc(Cn2nncc2-c2ccccc2)c1 | > 200 µM | > 200 µM | inhibition at 200 µM [3]: 50.5%; response, % of control at 200 µM (Paracoccus sp. [4]): 142%
COc1cccc(Cn2nncc2Cc2ccccc2)c1 | > 200 µM | > 200 µM | inhibition at 200 µM [3]: 58.5%; response, % of control at 200 µM (Paracoccus sp. [4]): 149%
COc1ccc(Cn2cc(-c3cc(OC)cc(OC)c3)nn2)cc1 | 62 µM | 199 µM | growth inhibition (GI) [5]: Non-toxic
Oc1ccc(-c2cnnn2Cc2cccc(O)c2)cc1 | > 200 µM | > 200 µM | 
COc1ccc(Cn2nncc2-c2cc(OC)cc(OC)c2)cc1 | 37.2 µM | 90.3 µM | growth inhibition (GI) [5]: Non-toxic; growth inhibition (GI) [6]: Non-toxic
Oc1cccc(Cn2nncc2-c2cc(O)cc(O)c2)c1 | > 200 µM | > 200 µM | 
Oc1ccc(Cn2nncc2-c2ccc(O)cc2)cc1 | > 200 µM | > 200 µM | 
Oc1cccc(Cn2cc(-c3cc(O)cc(O)c3)nn2)c1 | > 200 µM | > 200 µM | 
Oc1ccc(Cn2cc(-c3ccc(O)cc3)nn2)cc1 | > 200 µM | 131 µM | 
COc1ccc(Cc2[nH]c(=N)n(C)c2Cc2ccc(O)cc2)cc1 [NAAMINE A] |  |  | EC50 (Pseudomonas aeruginosa [7]): 436 µM; EC50 (Pseudomonas aeruginosa [8]): 436 µM
CCn1cc(C(=O)O)c(=O)c2cc(F)c(N3CCNCC3)cc21 [NORFLOXACIN] |  |  | growth inhibition (GI) [9]: Toxic; growth inhibition (GI) [10]: Toxic
